Assay results published in patent US20240335395A1, “COMPOSITIONS AND METHODS FOR PREVENTING AND/OR TREATING DISEASE ASSOCIATED WITH IL-23 EXPRESSION” (ALLSPIM, priority 2021, published 2024).

Tests used:
[1] = system: IL-1ß; assay: MSU-induced IL-1ß in knee joint tissue (multiplex microassay); format: in vivo, mouse; details: 2,4-D 100 mg/kg, CLC 1 mg/kg, DEX 0.5 mg/kg
Method: (§1) Mice (six per group) were treated with 2,4-D (100 mg/kg or 20 mg/kg, i.p.), CLC (1 mg/kg or 0.2 mg/kg, i.p.), DEX (0.5 mg/kg or 0.1 mg/kg, i.p.), or vehicle (20% polyoxyethylenesorbitan monooleate (Tween 80) plus PBS) 30 min before intra-articular stimulus with MSU (100 μg/10 μL, i.a.). Six mice with intra-articular injection with PBS alone served as a negative control.
(§2) Induction of MSU-Induced Knee Joint Inflammation. Male ICR (CD-1) mice (35-45 g, 10-12 weeks) were purchased from VitalRiver Inc (Beijing, China) and were kept in an animal care facility under controlled temperature of 21±1° C., humidity, and on a light/dark cycle, with ad libitum access to water and standard laboratory chow diet. Animal care and handling procedures were approved by the Animal Ethics Committee of GZUCM (Guangzhou University of Chinese Medicine). All efforts were made to minimize animal suffering and to reduce the number of animals used. Joint inflammation was induced by the intra-articular (i.a.) administration of MSU (200 μg/20 μl) into the right and left knee joints of mice under inhaled 3% isoflurane anesthesia. Control animals received an injection (i.a.) of sterile PBS (20 μL).
(§3) Cytokine Measurement. Mice were anesthetized and sacrificed. Knee joints were collected and frozen in liquid nitrogen. Samples were then homogenized in 500 μl of buffer containing protease inhibitors, centrifuged (3600 rpm, 4° C., 15 min) and supernatants were used to determine Th1/Th2/Th17 cytokine levels using a multiplex microassay (Qantibody® mouse TH17 Array 1 kit, Cat. No.: QAM-TH17-1; RayBiotech, Norcross, GA). Results were expressed as picograms (pg) of cytokine/mg of tissue.
(§4) Statistical Analysis. […] For in vitro experiments, microassays were performed in quadruplicate. p<0.05 was considered significant (*p<0.05, **p<0.01, ***p<0.001).

[2] = system: TNF-alpha; assay: MSU-induced TNF-alpha in knee joint tissue (multiplex microassay); format: in vivo, mouse; details: 2,4-D 100 mg/kg, CLC 1 mg/kg, DEX 0.5 mg/kg
Method: as §1, §2, §3, §4

[3] = system: immune cells from the peritoneal cavity; assay: Endometriosis mouse model, immune cell proportions of the peritoneal cavity (flow cytometry); format: in vivo; details: 50 mg/kg/day, 5 times a week, 6 weeks
Method: Experimental design. Balb/C female mice (10 weeks old) were habituated for 3 days to take a jelly containing (group EDT+2,4D) or not (groups No EDT and EDT+Vehicle) the compound. Surgical implantation of endometrial tissue from syngenic female in peritoneum, was performed at day 0 for groups EDT+Vehicle and EDT+2,4D. […] The vehicle or treatment was then given 5 times a week (50 mg/kg/day) during 6 weeks. Mice were then sacrificed and the peritoneal inflammation was assessed. All the details of the protocol are depicted in FIG. 27. Cytokine measurement in cell-free peritoneal lavage. After mice were euthanized, 5 mL of PBS was injected into the peritoneal cavity and the diluted peritoneal fluid containing the cells was then retrieved. The cells were pelleted by centrifugation at 500×g 4° C. and the supernatant (cell-free peritoneal fluid) was frozen at −80° C. for subsequent cytokine concentration measurement by ELISA. Cytokine concentration was assessed by ELISA kit in the peritoneal fluid (ThermoFisher, Mouse IL-1β, IL6 and TNFalpha Uncoated ELISA). […] The optical density was read with the Clariostar Plus Microplate Reader (BMG LABTECH), through the Clario software. Concentrations were calculated from a standard curve according to the manufacturer's protocol. Phenotypic study of immune cells from the peritoneal cavity assessed by flow cytometry. The pelleted peritoneal cells were resuspended in PBS-2% FBS and counted. One million cells were stained with the following fluorophore-conjugated antibodies purchased from BioLegend: CD45 BV510, CD11b APC-Cy7, CD11c PE, F4/80 BV711, CD80 PE Cy5, CD206 AF647, Ly-6C, PE-Cy7, CCR2 BV786 et CXCR4 BV421, CD45R/B220 PE Texas-Red, CD3E FITC, NK1.1 BV605 and CD69 PerCP-Cy5.5, Zombie-UV. Cells were incubated 20 min in the dark at 4° C., washed with PBS-2% FBS, and were fixed with paraformaldehyde 4% in 5 mL round-bottom polystyrene tubes (Falcon™ 352054). Compensation was adjusted with Ultracomp beads (ThermoFisher). […] All data were collected on LSR Fortessa flow cytometer (BD Bioscience, USA) and analyzed with FlowJo software. […]

COc1cc(O)c(OC)c(O)c1C(=O)/C=C/c1ccccc1 [2,4-D, 2′,4′-dihydroxy-3′,6′-dimethoxychalcone]
decrease of IL-1ß in knee joint tissue [1]: 5.3 fold | decrease of TNF-alpha in knee joint tissue [2]: 1.9 fold | global T cell proportion [3]: did not affect | proportion of NK cells amongst the peritoneal cells [3]: significantly reduced | proportion of macrophages [3]: not changed
